{"source": "ChEMBL document CHEMBL3352163", "about": "“Anthracene-9, 10-dione derivatives induced apoptosis in human cervical cancer cell line (CaSki) by interfering with HPV E6 expression” (Eur J Med Chem, 2014)", "key": {"[1]": {"experiment": "Cytotoxicity against human KATO III cells at 10 uM after 72 hrs by MTT assay", "format": "functional, KATO III cell"}, "HepG2 [2]": {"test_system": "HepG2", "experiment": "Cytotoxicity against human HepG2 cells at 10 uM after 72 hrs by MTT assay", "format": "functional"}, "SW-620": {"test_system": "SW-620", "experiment": "Cytotoxicity against human SW620 cells at 10 uM after 72 hrs by MTT assay", "format": "functional"}, "[3]": {"experiment": "Cytotoxicity against human CaSki cells at 10 uM after 72 hrs by MTT assay", "format": "functional, Ca-Ski"}, "[4]": {"experiment": "Cytotoxicity against human ChaGo cells at 10 uM after 72 hrs by MTT assay", "format": "functional"}, "[5]": {"experiment": "Cytotoxicity against human KATO III cells after 72 hrs by MTT assay", "format": "functional, cell-based, KATO III cell"}, "[6]": {"experiment": "Cell cycle arrest in human CaSki cells assessed as accumulation at G2/M phase at 1.5 uM after 24 hrs by propidium iodide staining-based FACS analysis (reference value: 18.0%)", "format": "functional", "details": "Ca-Ski"}, "[7]": {"experiment": "Cell cycle arrest in human CaSki cells assessed as accumulation at G1 phase at 3 uM after 24 hrs by propidium iodide staining-based FACS analysis (reference value: 61.3%)", "format": "functional", "details": "Ca-Ski"}, "[8]": {"experiment": "Cytotoxicity against human ChaGo cells after 72 hrs by MTT assay", "format": "functional, cell-based"}, "Ca-Ski [9]": {"test_system": "Ca-Ski", "experiment": "Induction of apoptosis in human CaSki cells carrying HPV assessed as increase in p53 protein expression after 24 hrs by Western blotting analysis", "format": "functional, cell-based"}, "[10]": {"experiment": "Cell cycle arrest in human CaSki cells assessed as accumulation at G1 phase at 0.3 uM after 24 hrs by propidium iodide staining-based FACS analysis (reference value: 61.3%)", "format": "functional", "details": "Ca-Ski"}, "[11]": {"experiment": "Cell cycle arrest in human CaSki cells assessed as accumulation at G2/M phase after 24 hrs by propidium iodide staining-based FACS analysis", "format": "functional", "details": "Ca-Ski"}, "[12]": {"experiment": "Cell cycle arrest in human CaSki cells assessed as accumulation at G0 phase at 1.5 uM after 24 hrs by propidium iodide staining-based FACS analysis (reference value: 1.5%)", "format": "functional", "details": "Ca-Ski"}, "Ca-Ski [13]": {"test_system": "Ca-Ski", "experiment": "Induction of apoptosis in human CaSki cells carrying HPV assessed as downregulation of Akt phosphorylation after 24 hrs by Western blotting analysis", "format": "functional, cell-based"}, "Ca-Ski [14]": {"test_system": "Ca-Ski", "experiment": "Induction of apoptosis in human CaSki cells by DAPI staining-based fluorescence microscopy", "format": "functional, cell-based"}, "Ca-Ski [15]": {"test_system": "Ca-Ski", "experiment": "Inhibition of colony formation in human CaSki cells at 5 uM after 24 hrs by crystal violet staining-based fluorescence microscopy", "format": "functional, cell-based"}, "[16]": {"experiment": "Cell cycle arrest in human CaSki cells assessed as accumulation at G1 phase at 1.5 uM after 24 hrs by propidium iodide staining-based FACS analysis (reference value: 61.3%)", "format": "functional", "details": "Ca-Ski"}, "[17]": {"experiment": "Cell cycle arrest in human CaSki cells assessed as accumulation at G2/M phase at 3 uM after 24 hrs by propidium iodide staining-based FACS analysis (reference value: 18.0%)", "format": "functional", "details": "Ca-Ski"}, "[18]": {"experiment": "Cell cycle arrest in human CaSki cells assessed as accumulation at G0 phase at 0.3 uM after 24 hrs by propidium iodide staining-based FACS analysis (reference value: 1.5%)", "format": "functional", "details": "Ca-Ski"}, "[19]": {"experiment": "Cell cycle arrest in human CaSki cells assessed as accumulation at G0 phase at 3 uM after 24 hrs by propidium iodide staining-based FACS analysis (reference value: 1.5%)", "format": "functional", "details": "Ca-Ski"}, "[20]": {"experiment": "Cell cycle arrest in human CaSki cells assessed as accumulation at S phase at 3 uM after 24 hrs by propidium iodide staining-based FACS analysis (reference value: 14.1%)", "format": "functional", "details": "Ca-Ski"}, "HepG2 [21]": {"test_system": "HepG2", "experiment": "Cytotoxicity against human HepG2 cells after 72 hrs by MTT assay", "format": "functional, cell-based", "details": "HepG2, 72 h"}, "[22]": {"experiment": "Cell cycle arrest in human CaSki cells assessed as accumulation at G2/M phase at 0.3 uM after 24 hrs by propidium iodide staining-based FACS analysis (reference value: 18.0%)", "format": "functional", "details": "Ca-Ski"}, "[23]": {"experiment": "Cell cycle arrest in human CaSki cells assessed as accumulation at S phase at 1.5 uM after 24 hrs by propidium iodide staining-based FACS analysis (reference value: 14.1%)", "format": "functional", "details": "Ca-Ski"}, "Ca-Ski [24]": {"test_system": "Ca-Ski", "experiment": "Induction of apoptosis in human CaSki cells carrying HPV assessed as inhibition of Bcl-2 protein expression at 0.3 uM after 24 hrs by Western blotting analysis", "format": "functional, cell-based"}, "Ca-Ski [25]": {"test_system": "Ca-Ski", "experiment": "Induction of apoptosis in human CaSki cells carrying HPV assessed as reduction of E6 mRNA expression at 0.3 uM after 24 hrs by RT-PCR analysis", "format": "functional, cell-based"}, "[26]": {"experiment": "Cytotoxicity against human WI38 cells after 72 hrs by MTT assay", "format": "cell-based", "details": "WI-38, 72 h"}, "Ca-Ski [27]": {"test_system": "Ca-Ski", "experiment": "Cytotoxicity against human CaSki cells at 10 uM in presence of glutathione relative to control", "format": "functional, cell-based"}, "Ca-Ski [28]": {"test_system": "Ca-Ski", "experiment": "Induction of apoptosis in human CaSki cells carrying HPV assessed as increase in procaspase-3 protein expression after 24 hrs by Western blotting analysis", "format": "functional, cell-based"}, "[29]": {"experiment": "Cell cycle arrest in human CaSki cells assessed as accumulation at S phase at 0.3 uM after 24 hrs by propidium iodide staining-based FACS analysis (reference value: 14.1%)", "format": "functional", "details": "Ca-Ski"}, "[30]": {"experiment": "Cytotoxicity against human CaSki cells after 72 hrs by MTT assay", "format": "functional, cell-based", "details": "Ca-Ski"}}, "note": "pIC50: −log10 of the molar value. The source made the active and inactive calls. The calls are words filed in the database; no cut-off is given here.", "data": [{"compound": "Cc1ccc(S(=O)(=O)Oc2ccc(NCCc3ccccc3)c3c2C(=O)c2ccccc2C3=O)cc1", "values": [{"measurement": "Activity", "setting": "[1]", "value": 42.5, "unit": "%"}, {"measurement": "Activity", "setting": "HepG2 [2]", "value": 8.3, "unit": "%"}, {"measurement": "Activity", "setting": "SW-620", "value": 49.5, "unit": "%"}, {"measurement": "Activity", "setting": "[3]", "value": 27.4, "unit": "%"}, {"measurement": "Activity", "setting": "[4]", "value": 13.3, "unit": "%"}]}, {"compound": "Cc1ccc(S(=O)(=O)Oc2ccc(OS(=O)(=O)c3ccc(C)cc3)c3c2C(=O)c2ccccc2C3=O)cc1", "values": [{"measurement": "Activity", "setting": "[1]", "value": 31.1, "unit": "%"}, {"measurement": "Activity", "setting": "HepG2 [2]", "value": 11.9, "unit": "%"}, {"measurement": "Activity", "setting": "SW-620", "value": 22.2, "unit": "%"}, {"measurement": "Activity", "setting": "[3]", "value": 36.4, "unit": "%"}, {"measurement": "Activity", "setting": "[4]", "value": 5.8, "unit": "%"}]}, {"compound": "Cc1ccc(S(=O)(=O)Oc2ccc(NCCN3CCOCC3)c3c2C(=O)c2ccccc2C3=O)cc1", "values": [{"measurement": "Activity", "setting": "[1]", "value": 29.3, "unit": "%"}, {"measurement": "Activity", "setting": "HepG2 [2]", "value": 11.1, "unit": "%"}, {"measurement": "Activity", "setting": "SW-620", "value": 19.4, "unit": "%"}, {"measurement": "Activity", "setting": "[3]", "value": 42.8, "unit": "%"}, {"measurement": "Activity", "setting": "[4]", "value": 4.9, "unit": "%"}]}, {"compound": "Cc1ccc(S(=O)(=O)Oc2ccc(NCc3ccccc3)c3c2C(=O)c2ccccc2C3=O)cc1", "values": [{"measurement": "Activity", "setting": "[1]", "value": 41.5, "unit": "%"}, {"measurement": "pIC50", "setting": "[5]", "value": "< 5.24"}, {"measurement": "Activity", "setting": "[6]", "value": 33.8, "unit": "%"}, {"measurement": "Activity", "setting": "[7]", "value": 12.4, "unit": "%"}, {"measurement": "pIC50", "setting": "[8]", "value": "< 5.24"}, {"measurement": "Activity", "setting": "Ca-Ski [9]", "value": "Active"}, {"measurement": "Activity", "setting": "[10]", "value": 62, "unit": "%"}, {"measurement": "Activity", "setting": "[11]", "value": "Dose-dependent effect"}, {"measurement": "Activity", "setting": "[12]", "value": 11, "unit": "%"}, {"measurement": "Activity", "setting": "Ca-Ski [13]", "value": "Dose-dependent effect"}, {"measurement": "Activity", "setting": "Ca-Ski [14]", "value": "Dose-dependent effect"}, {"measurement": "inhibition", "setting": "Ca-Ski [15]", "value": "Active"}, {"measurement": "Activity", "setting": "[16]", "value": 31.7, "unit": "%"}, {"measurement": "Activity", "setting": "[17]", "value": 46.2, "unit": "%"}, {"measurement": "Activity", "setting": "[18]", "value": 1.9, "unit": "%"}, {"measurement": "Activity", "setting": "HepG2 [2]", "value": 40.5, "unit": "%"}, {"measurement": "Activity", "setting": "SW-620", "value": 49.1, "unit": "%"}, {"measurement": "Activity", "setting": "[19]", "value": 10.9, "unit": "%"}, {"measurement": "Activity", "setting": "[20]", "value": 14.2, "unit": "%"}, {"measurement": "pIC50", "setting": "HepG2 [21]", "value": "< 5.24"}, {"measurement": "Activity", "setting": "[22]", "value": 19.5, "unit": "%"}, {"measurement": "Activity", "setting": "[23]", "value": 13.7, "unit": "%"}, {"measurement": "Activity", "setting": "[3]", "value": 84.5, "unit": "%"}, {"measurement": "Activity", "setting": "[4]", "value": 39.8, "unit": "%"}, {"measurement": "inhibition", "setting": "Ca-Ski [24]", "value": "Active"}, {"measurement": "Activity", "setting": "Ca-Ski [25]", "value": "Active"}, {"measurement": "pIC50", "setting": "[26]", "value": "< 5.00"}, {"measurement": "Activity", "setting": "Ca-Ski [27]", "value": "Active"}, {"measurement": "Activity", "setting": "Ca-Ski [28]", "value": "Active"}, {"measurement": "Activity", "setting": "[29]", "value": 12.6, "unit": "%"}]}, {"compound": "CCN(CC)c1ccc(OS(=O)(=O)c2ccc(C)cc2)c2c1C(=O)c1ccccc1C2=O", "values": [{"measurement": "Activity", "setting": "[1]", "value": 39.9, "unit": "%"}, {"measurement": "Activity", "setting": "HepG2 [2]", "value": 35.6, "unit": "%"}, {"measurement": "Activity", "setting": "SW-620", "value": 32.6, "unit": "%"}, {"measurement": "Activity", "setting": "[3]", "value": 50, "unit": "%"}, {"measurement": "Activity", "setting": "[4]", "value": 43.9, "unit": "%"}, {"measurement": "pIC50", "setting": "[30]", "value": 6.52}]}, {"compound": "O=C1c2ccccc2C(=O)c2c(O)ccc(O)c21", "note": "[QUINIZARIN]", "values": [{"measurement": "Activity", "setting": "[1]", "value": 38.4, "unit": "%"}, {"measurement": "Activity", "setting": "HepG2 [2]", "value": 5.6, "unit": "%"}, {"measurement": "Activity", "setting": "SW-620", "value": 21.1, "unit": "%"}, {"measurement": "Activity", "setting": "[3]", "value": 48.6, "unit": "%"}, {"measurement": "Activity", "setting": "[4]", "value": 12.3, "unit": "%"}, {"measurement": "pIC50", "setting": "[30]", "value": "< 5.00"}]}, {"compound": "Cc1ccc(S(=O)(=O)Oc2ccc(N3CCOCC3)c3c2C(=O)c2ccccc2C3=O)cc1", "values": [{"measurement": "Activity", "setting": "[1]", "value": 35.3, "unit": "%"}, {"measurement": "Activity", "setting": "HepG2 [2]", "value": 6.1, "unit": "%"}, {"measurement": "Activity", "setting": "SW-620", "value": 22.3, "unit": "%"}, {"measurement": "Activity", "setting": "[3]", "value": 43.8, "unit": "%"}, {"measurement": "Activity", "setting": "[4]", "value": 11.3, "unit": "%"}]}]}
